Data: patent publication US20230364243A1, “CANCER-SELECTIVE TARGET DEGRADATION BY TARGETING GROUP CAGED PROTACS” (Beth Israel Deaconess Medical Center, Inc., priority 2021, published 2023)

How the values were obtained:
BRD4 = target: T1, BRD4 (Homo sapiens, UniProt O60885); test: Western blot analysis of BRDs protein levels in HeLa cells; type: cell-based
T1 construct: endogenous in cells; host or cells: HeLa

BRDs = test: Western blot analysis of BRDs in OVCAR-8 ovary cancer cells; type: cell-based; conditions: OVCAR-8 cells
Experimental: (§1) Cells were lysed in EBC buffer (50 mM Tris pH 7.5, 120 mM NaCl, 0.5% NP-40) supplemented with protease inhibitors (Pierce) and phosphatase inhibitors (phosphatase inhibitor cocktail set I and II, Calbiochem). The protein concentrations of the lysates were measured using the Bio-Rad protein assay reagent on a Beckman Coulter DU-800 spectrophotometer. The lysates were then resolved by SDS-PAGE and immunoblotted with indicated antibodies.
(§2) Cells were lysed in EBC buffer (50 mM Tris-HCl pH 7.5, 120 mM NaCl and 0.5% NP-40) supplemented with protease inhibitors (Pierce) and phosphatase inhibitors (phosphatase inhibitor cocktailset I and II, Calbiochem). The protein concentrations of the lysates were measured using the Bio-Rad protein assay reagent on a Beckman Coulter DU-800 spectrophotometer. The lysates (40 μg protein) werethen resolved by 10% SDS-olyacrylamide gel electrophoresis (PAGE) at 130 V for 80 min and immunoblotted with indicated antibodies at 4° C. overnight, washed four times with Tris-buffered saline with 0.1% Tween-20 (TBST) buffer, incubated with secondary antibody for 1 hour at room temperature, and then washed 4 times with TBST.

HFF-1 cells = test: Cell viability of HFF-1 normal cells (CCK-8 cell proliferation assay); type: cell-based, human; conditions: 72 hours
Experimental: (§3) Cell in 96-well plates were treated with drugs as indicated, and then incubated with 10 μl/well of CCK-8 (cell counting Kit-8) solution at for 1-2 hours, followed by the measurement of optical density at 450 nm.

HeLa cells = test: Cell viability of HeLa cells (CCK-8 cell proliferation assay); type: cell-based; conditions: 72 hours
Experimental: as §3

[1] = target: Flag-tagged cereblon (CRBN) (Homo sapiens, UniProt Q96SW2); test: Streptavidin pulldown competition with biotinylated pomalidomide for Flag-CRBN; type: binding; conditions: for competition with biotinylated-pomalidomide to bind CRBN E3 ubiquitin ligase: caged, inert form, HEK293T cell lysis, 1 hour
Experimental: Streptavadin pull down assays were performed on cell lysis derived from HEK293T (kidney) cells. Cell lysis was incubated with biotin or biotin-POMA, with or without pomalidomide, FA-S2_POMA or FA-C2-POMA for 1 hour. Additionally, some cell lysates had been pretreated with GSH.
The streptavidin pulldown assay for biotin-pomalidomide was performed as previous reported. Briefly, Flag-CRBN was expressed in HEK293T cells lysed in PROTAC buffer B (50 mM Tris-HCl pH7.5, 150 mM NaCl and 0.5% NP-40) supplemented with protease inhibitors (Pierce) and phosphatase inhibitors (phosphatase inhibitor cocktail set I and II, Calbiochem). A total of 1 mg of cell lysate was incubated with 10 μl of 10 mM biotin-pomalidomide and 8 μl of streptavidin beads for 1 hour at 4° C. in the absence or presence of pomalidomide or its derivates. Alternatively, Folate-S2-pomalidomide or Folate-C2-pomalidomide were incubated with 5 mM GSH and then subjected to the competition bindingassay. Then, the beads were washed four times with NETN buffer (20 mM Tris-HCl pH 7.5, pH 8.0, 100 mM NaCl, 1 mM EDTA and 0.5% NP-40), before being resolved by SDS-PAGE and immunoblotted with Flag-tag antibody.

MM.1S cells = test: Cell viability / proliferation of MM.1S cells (CCK-8); type: cell-based; conditions: for IC50: Homo sapiens, MM1.S
Experimental: (§4) For folic acid competitive degradation assay, cells were pretreated with folic acid (F8758, Sigma-Aldrich, 2.5 mM) for 2 hours, followed by the treatment of indicated PROTACs for indicated time. For endocytosis inhibition, cells were pretreated with Pitostop 2 (SML1169, Sigma-Aldrich, 1-30 μM) or MCD (21633, Cayman, 0.03-1 mM) for 12 hours, followed by co-treatment with indicated PROTACs for another 12 hours. For proteasome or E3 ligase inhibition assay, cells were treated with MG132 (BML-P11020, ENZO Life Sciences, 10 μM) or MLN4924 (S7109, SelleckChem, 1 μM) another 12 hours. For GSH-stimulating assay, cells were treated with S-Acetyl-GSH (29624, Cayman, 1 mM) with indicated PROTACs for 12 or 72 hours.
as §3

IKZF3 [2] = target: T2, IKZF3 (Homo sapiens, UniProt Q9UKT9); test: Western blotting of IKZF3 in MM.1S cells; type: cell-based; conditions: FOLR1-positive MM.1S cells, 12 hours
T2 construct: endogenous in cells; host or cells: MM.1S (also MM.1S-CRBN+/+ and CRBN-/-)
Experimental: (§5) For folic acid competitive degradation assay, cells were pretreated with folic acid (F8758, Sigma-Aldrich, 2.5 mM) for 2 hours, followed by the treatment of indicated PROTACs for indicated time. […] For proteasome or E3 ligase inhibition assay, cells were treated with MG132 (BML-P11020, ENZO Life Sciences, 10 μM) or MLN4924 (S7109, SelleckChem, 1 μM) another 12 hours.
as §2

IKZF3 [3] = target: IKZF3 (Homo sapiens, UniProt Q96SW2+Q9UKT9); test: Western blotting of IKZF3 in MM.1S cells; type: cell-based; set-up: endogenous in cells; host or cells: MM.1S (also MM.1S-CRBN+/+ and CRBN-/-)
Experimental: as §5, §2

[4] = Release of active compound after incubation with DTT in PBS at 37° C., HPLC analysis; type: physicochemical; conditions: DTT (2 equiv), 37° C. in PBS, HPLC
Experimental: FA-S2-POMA and the negative control FA-C2-POMA were incubated with dithiothreitol (DTT) under physiological conditions (37° C. in phosphate buffered saline (PBS)) and then subjected to HPLC analysis.
The effects of these folate caged PROTACS on ALK fusion protein degradation was assessed in cancer cells. FA-S2-MS4048 and FA-C2-MS4048 were incubated with DTT at 37° C. in PBS. […] Furthermore, compared to FA-S2-POMA (FIG. 11B), the release rate of FA-S2-MS4048 is slower.

IKZF1 = target: T3, IKZF1 (Homo sapiens, UniProt Q13422+Q96SW2); test: Western blotting of IKZF1 in SU-DHL-1 cells; type: cell-based; conditions: FOLR1-positive SU-DHL-1 cells, 12 hours
T3 construct: endogenous in cells; host or cells: SU-DHL-1
Experimental: as §2

HT-29 cells = test: Cell viability of HT-29 cells (CCK-8); type: cell-based; conditions: 72 hours
Experimental: as §3

SK-MEL-28 cells = test: Cell viability of SK-MEL-28 cells (CCK-8); type: cell-based; conditions: 72 hours
Experimental: as §3

MEK1 and MEK2 = test: Western blot analysis of MEK1 and MEK2 levels in HT29 and SK-MEL-28 cells; type: cell-based
Experimental: as §4, §1, §2

## Cc1ncsc1-c1ccc([C@H](C)NC(=O)[C@@H]2C[C@@H](NC(=O)CCCCn3cc(CNC(=O)CC[C@H](NC(=O)c4ccc(NCc5cnc6nc(N)[nH]c(=O)c6n5)cc4)C(=O)O)nn3)CN2C(=O)[C@@H](NC(=O)COCCCOCCNC(=O)C[C@@H]2N=C(c3ccc(Cl)cc3)c3c(sc(C)c3C)-n3c(C)nnc32)C(C)(C)C)cc1 [Folate-ARV-771N]
BRD4; HeLa cells, even at 100 nM
  degrading BRDs: incapable of degrading BRDs
BRDs
  degradation of BRDs: but not Folate-ARV-771N, degraded BRDs

## Cc1ncsc1-c1ccc([C@H](C)NC(=O)[C@@H]2C[C@@H](O)CN2C(=O)[C@@H](NC(=O)COCCCOCCNC(=O)C[C@@H]2N=C(c3ccc(Cl)cc3)c3c(sc(C)c3C)-n3c(C)nnc32)C(C)(C)C)cc1 [ARV-771]
HFF-1 cells
  IC50: 1100 nM
HeLa cells
  IC50: 183 nM

## Nc1nc2ncc(CNc3ccc(C(=O)N[C@@H](CCC(=O)NCc4cn(CCCCCCOC(=O)N5C(=O)CCC(N6C(=O)c7cccc(N)c7C6=O)C5=O)nn4)C(=O)O)cc3)nc2c(=O)[nH]1 (stereo partly drawn) [FA-C2-POMA, N^5-((1-(6-((3-(4-amino-1,3-dioxoisoindolin-2-yl)-2,6-dioxopiperidine-1-carbonyl)oxy)hexyl)-1H-1,2,3-triazol-4-yl)methyl)-N^2-(4-(((2-amino-4-oxo-3,4-dihydropteridin-6-yl)methyl)amino)benzoyl)-L-glutamine]
[1]
  competition with biotinylated-pomalidomide to bind CRBN E3 ubiquitin ligase: not compete
MM.1S cells; 72 hours
  IC50: 62300 nM
IKZF3 [2]
  degradation of IKZF3: ineffective in degrading IKZF3

## Cc1ncsc1-c1ccc([C@H](C)NC(=O)[C@@H]2C[C@@H](OC(=O)CCCCn3cc(CNC(=O)CC[C@H](NC(=O)c4ccc(NCc5cnc6nc(N)[nH]c(=O)c6n5)cc4)C(=O)O)nn3)CN2C(=O)[C@@H](NC(=O)COCCCOCCNC(=O)C[C@@H]2N=C(c3ccc(Cl)cc3)c3c(sc(C)c3C)-n3c(C)nnc32)C(C)(C)C)cc1 [Folate-ARV-771]
BRD4; HeLa cells pretreated with MβCD
  effect in degrading BRD4 after pretreatment with endocytosis inhibitor MβCD: efficiently blocked the effect

## Nc1nc2ncc(CNc3ccc(C(=O)N[C@@H](CCC(=O)NCc4cn(CCSSCCOC(=O)N5C(=O)CCC(N6C(=O)c7cccc(N)c7C6=O)C5=O)nn4)C(=O)O)cc3)nc2c(=O)[nH]1 (stereo partly drawn) [FA-S2-POMA, N^5-((1-(2-((2-((3-(4-amino-1,3-dioxoisoindolin-2-yl)-2,6-dioxopiperidine-1-carbonyl)oxy)ethyl)disulfanyl)ethyl)-1H-1,2,3-triazol-4-yl)methyl)-N^2-(4-(((2-amino-4-oxo-3,4-dihydropteridin-6-yl)methyl)amino)benzoyl)-L-glutamine]
[1]
  competition with biotinylated-pomalidomide to bind CRBN E3 ubiquitin ligase: not compete
[1]; pretreated with GSH
  release of active pomalidomide upon treatment with reducing agent GSH (pulldown): can release pomalidomide
IKZF3 [3]; MM.1S cells, 2.5 mM folic acid
  effect on degrading IKZF3 with co-treatment of folic acid: effectively antagonized the effect
IKZF3 [3]; MM.1S cells, CRBN knockout
  effect on degrading IKZF3 after depletion of endogenous CRBN E3 ubiquitin ligase: completely abolished the effect
IKZF3 [3]; MM.1S cells, S-Ac-GSH 1 mM
  potency in degrading IKZF3 after pretreatment with S-Ac-GSH: significantly increased the potentcy
IKZF3 [3]; MM.1S cells, proteasome inhibitor MG132 or neddylation inhibitor MLN4924
  effect on degradation of IKZF3 with MG132 or MLN4924: blocked the effect
IKZF3 [3]; co-treatment with pitstop 2 or methyl-β-cyclodextrin (MβCD)
  effect on degrading IKZFs with endocytosis inhibitor pitstop 2 or MβCD: compromised the effect
MM.1S cells; 72 hours
  IC50: 1000 nM
MM.1S cells; S-Ac-GSH 1 mM
  potency in inhibiting proliferation after pretreatment with S-Ac-GSH: significantly increased potency
MM.1S cells; folic acid co-treatment, 72 hours
  potency for suppression of proliferation with co-treatment of folic acid: significant reduction in potency
[4]
  release of pomalidomide after addition of DTT: efficient release of pomalidomide
IKZF1
  degradation of IKZF1: degraded IKZF3 or IKZF1
IKZF3 [2]
  degradation of IKZF3: degraded IKZF3 or IKZF1

## Cc1ncsc1-c1ccc([C@H](C)NC(=O)[C@@H]2C[C@@H](O)CN2C(=O)[C@@H](NC(=O)CCCCCCCCCCNCCCONC(=O)c2ccc(F)c(F)c2Nc2ccc(I)cc2F)C(C)(C)C)cc1 [MS432, reference compound]
HT-29 cells
  IC50: 176 nM
SK-MEL-28 cells
  IC50: 32.4 nM

## Cc1ncsc1-c1ccc([C@H](C)NC(=O)[C@@H]2C[C@@H](OC(=O)CCCCn3cc(CNC(=O)CC[C@H](NC(=O)c4ccc(NCc5cnc6nc(N)[nH]c(=O)c6n5)cc4)C(=O)O)nn3)CN2C(=O)[C@@H](NC(=O)CCCCCCCCCCNCCCONC(=O)c2ccc(F)c(F)c2Nc2ccc(I)cc2F)C(C)(C)C)cc1 [Folate-MS432, N^2-(4-(((2-amino-4-oxo-3,4-dihydropteridin-6-yl)methyl)amino)benzoyl)-N^5-((1-(5-(((3R,5S)-1-((S)-2-(11-((3-((3,4-difluoro-2-((2-fluoro-4-iodophenyl)amino)benzamido)oxy)propyl)amino)undecanamido)-3,3-dimethylbutanoyl)-5-(((S)-1-(4-(4-methylthiazol-5-yl)phenyl)ethyl)carbamoyl)pyrrolidin-3-yl)oxy)-5-oxopentyl)-1H-1,2,3-triazol-4-yl)methyl)-L-glutamine]
MEK1 and MEK2; HT29 and SK-MEL-28 cells, dose- and time-dependent
  degradation of MEK1 and MEK2: degraded MEK1 and MEK2
MEK1 and MEK2; HT-29 and SK-MEL-28 cells, folic acid pretreatment
  effect in degrading MEK1 and MEK2 after pretreatment of folic acid: blocked the effect
MEK1 and MEK2; HT-29 cells, Ac-VHL pretreatment
  degradation of MEK1/2 after pretreatment with VHL ligand Ac-VHL: blocked the degradation of MEK1/2
HT-29 cells; Homo sapiens
  IC50: 436 nM
SK-MEL-28 cells; Homo sapiens
  IC50: 390 nM
